Source: US11174216B2, “Lipids that increase insulin sensitivity and methods of using the same” (Beth Israel Deaconess Medical Center, Inc., priority 2012, dated 2021)
Each block holds one molecule with its values, some of them ahead of it.

What was measured:
HepG2 cells = assay: PPAR agonist studies, FAHFA levels in HepG2 cells; assay type: cell-based; settings: 0.5 uM and 1.0 uM, 48 hr, cells and media
Description: In this example, HepG2 cells were seeded in 6-well plates. At 80% confluence, cells were treated with two different concentrations [0.5 uM and 1.0 uM] of an agonist of PPAR α (WY14643), δ (CAY10592), or γ (Pioglitazone) for 48 hr in HepG2 media with 2.5% FBS. At the end of incubation, 500 uL of media was collected and the cells were collected in PBS for lipid extraction. Lipids were extracted from both media and cells to quantitate the FAHFA levels by Mass Spec. The results are summarized in FIGS. 33 and 34 for the cells and media, respectively.
HepG2 cells were seeded in 6-well plate. At 80% confluence, cells were treated with two different concentrations [0.5 μM and 1.0 μM] of PPAR α/δ/γ agonists for 48 h in HepG2 media containing 2.5% fetal bovine serum (PPAR α agonist—WY14643; PPAR δ agonist—CAY10592; PPAR γ agonist—Pioglitazone). At the end of incubation, 500 μL of media and the cells were collected in PBS. Lipids were extracted as per Folch Method from both media and cells to quantitate the FAHFA levels by Mass Spec. Briefly, chloroform and methanol were added to the media or cells in 2:1 ratio and sonicated for 2-3 min and centrifuged at 3000 rpm for 10 min at 4° C. […] Calculated volume of chloroform is added to the dissolve the lipids and 2 μL of injection volume was used to analyze FAHFAs through Mass spec. […]

STC-1 cells [1] = assay: GLP-1 secretion in STC-1 enteroendocrine cells (ELISA); assay type: cell-based
Description: For the experiments summarized in FIG. 51 STC-1 cells were incubated with vehicle (DMSO), 9-PAHSA, 5-PAHSA or 9-OAHSA at the indicated concentrations or lineolic acid (100 uM) as a positive control. Media was harvested and GLP-1 was measured by ELISA.
For the experiments summarized in FIG. 52, the same protocol as described for FIG. 51 was used, except in this experiment a time course was performed. For both FIG. 51 and FIG. 52, for GLP-1 secretion STC1 cells were washed 3× with serum free culture media followed by stimulation with FAHFAs or vehicle at the indicated concentrations and timepoints. Levels of active GLP-1 were measured by ELISA.

STC-1 cells [2] = assay: ERK phosphorylation in STC-1 cells (immunoblot); assay type: cell-based; settings: 15 minutes
Description: For the experiments summarized in FIG. 50, STC-1 cells were incubated with 9-PAHSA, 5-PAHSA or 9-OAHSA at the indicated concentrations. Cells were harvested and lysed and proteins were separated by SDS PAGE and transferred onto nitrocellulose filters. The phosphorylation of ERK and the amount of total ERK was determined by immunoblotting with antibodies specific for total or phosphor-ERK. DMSO was the control. For ERK phosphorylation, cells were serum deprived overnight and stimulated with FAHFAs or vehicle as indicated for 15 minutes followed by lysis in RIPA buffer and analysis by SDS-PAGE

GPR120 = target: T1, GPR120 (Homo sapiens, UniProt Q5NUL3); assay: PATHHUNTER beta-Arrestin GPCR assay; assay type: cell-based
T1 sequence (Q5NUL3 1-361): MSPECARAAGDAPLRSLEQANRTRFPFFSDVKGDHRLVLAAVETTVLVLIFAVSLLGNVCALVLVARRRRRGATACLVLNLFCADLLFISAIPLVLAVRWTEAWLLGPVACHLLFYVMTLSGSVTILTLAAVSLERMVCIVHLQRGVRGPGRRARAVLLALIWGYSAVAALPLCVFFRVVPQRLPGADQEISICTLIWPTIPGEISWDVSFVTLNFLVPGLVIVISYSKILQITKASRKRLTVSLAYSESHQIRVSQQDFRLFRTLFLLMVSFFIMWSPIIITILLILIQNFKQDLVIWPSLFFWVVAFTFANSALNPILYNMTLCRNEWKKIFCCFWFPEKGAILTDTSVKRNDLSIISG
Excerpt: For the experiments summarized in FIGS. 53-55, the fragment based GPCR assay from DiscoveRx (PATHHUNTER® β-Arrestin assay) was used to as per manufacturer's instructions to determine activation of specific GPCRs as indicated in FIGS. 53-55.

[3] = tested on: FA-CoA:HFA acyltransferase activity; assay: FAHFA biosynthesis (FA-CoA:HFA acyltransferase) assay in tissue lysates; assay type: biochemical; settings: 10 uM 9-HSA and oleoyl-CoA, increasing doses
Description: In order to understand the biology of the new FAHFA lipid class more completely, experiments were performed to identify an enzyme capable of synthesizing FAHFAs as well. By structural analogy to other lipid metabolites such as diacylglycerols or wax esters, it was hypothesized that hydroxy fatty acids were the immediate precursors to FAHFAs. Candidate acyltransferases were identified by reacting the common biochemical acyl carrier, oleoyl-CoA, with 9-hydroxystearic acid (9-HSA) in the presence of cell lysates or tissue membrane lysates to form 9-OAHSA (Scheme 2; FIG. 61 ).
After first establishing that FA-CoA:HFA acyltransferase activity was membrane-localized in liver (not shown), we isolated membrane fractions from liver or WAT tissue lysate by ultracentrifugation, then resuspended the pellets in PBS buffer and diluted to 1 mg/ml protein concentration. […] The reaction mixtures were extracted with ethyl acetate, concentrated, and reconstituted in 1:1 chloroform:methanol for MS analysis. Formation of 9-OAHSA was measured by MS/MS, with which the appearance of the parent ion m/z 563 was monitored.
In light of the above results acyltransferase families that have been reported to have a membrane-bound localization and to have the ability to conjugate FA-CoA to a hydrophobic alcohol were targeted. […]

[4] = tested on: carboxyl ester lipase (CEL)
[5] = tested on: FAHFA hydrolysis activity in pancreas membrane lysate; assay: FAHFA hydrolysis activity assay, pancreas membrane lysate; settings: pancreas lysate
[6] = tested on: FAHFA hydrolysis activity in liver lysate

SMILES: Cc1cccc(Nc2cc(Cl)nc(SCC(=O)O)n2)c1C [WY14643]
FAHFA production in liver cells (HepG2 cells): stimulate FAHFA production

activation of GPR120 (GPR120): but not 9OAHSA, activate GPR120
SMILES: CCCCCCCC/C=C\CCCCCCCC(=O)OC(CCCCCCCCC)CCCCCCCC(=O)O (stereo not shown) [9-OAHSA]
GLP-1 secretion (STC-1 cells [1]): induce GLP-1 secretion
ERK phosphorylation (STC-1 cells [2]): induce ERK phosphorylation

9-OAHSA levels (FAHFA production) [3]: no change
SMILES: CCCCCCCCCCC(C)(C)C(=O)Nc1c(OC)cc(OC)cc1OC [CI976]

9-OAHSA levels (FAHFA production) [3]: no change
SMILES: O=C(Nc1ccccc1)Nc1ccc(-c2ccc(C(=O)[C@@H]3CCC[C@H]3C(=O)O)cc2)cc1 [A922500]

SMILES: O=C(O)COc1ccc(SCC=C(c2ccc(Br)cc2)c2ccc(Br)cc2)cc1Cl [CAY10592]
FAHFA production in liver cells (HepG2 cells): stimulate FAHFA production

SMILES: C[C@H](CCC(=O)NCCS(=O)(=O)O)[C@H]1CC[C@H]2[C@@H]3[C@H](O)C[C@@H]4C[C@H](O)CC[C@]4(C)[C@H]3C[C@H](O)[C@]12C [NaTC, sodium taurocholate, reference compound]
effect on FAHFA hydrolysis [4]: enhanced
effect on FAHFA hydrolysis [5]: markedly increased
effect on FAHFA hydrolysis [6]: not enhanced
